Experimental data: patent US9606132B2, “Methods of monitoring adherence to lurasidone therapy” (Ameritox, Ltd., priority 2013, dated 2017)
Where two headings read alike, the source gives them in different places.

Columns and labels:
[1] = in vivo
Experimental: Urine samples of normally metabolizing human subjects who were known to be taking chronic doses of lurasidone were tested for the presence of lurasidone and eleven metabolites (excluding isomeric metabolites). Each patient sample was analyzed twice to ensure accuracy. Due to the high probability for false identification of isobars, MS/MS data was collected and selectively looked at to add confidence to the identification.

[2] = cited from earlier work; for presence in serum: mice, rats, dogs (M8 also monkeys), 10 mg/kg oral administration of radiolabelled lurasidone
[3] = cited from earlier work; for presence in serum: 40 mg oral dosing of radiolabelled lurasidone

With `O=C(O)C1CCCCC1CN1C(=O)C2C(C1=O)[C@@H]1CC[C@H]2C1O` (some centres unmarked) [M5] the “detectability in human urine (Example 1)” value ([1]; human) was “neither metabolite ID-20220 (M5) nor metabolite ID-20219 (M11) were found to be excreted through human urine in detectable amounts”.

With `O=C1C2C(C(=O)N1CC1CCCCC1CN1CCN(c3nsc4ccccc34)CC1)[C@@H]1CC[C@H]2C1O` (some centres unmarked) [M8/M9, Hydroxy-Lurasidone] the “detectability in human urine (Example 1)” value [1] was “present in detectable quantities in each test of each subject's urine sample”.

For `O=C1C2C(C(=O)N1CC1CCCCC1CN1CCN(c3nsc4ccccc34)CC1)[C@@H]1CC[C@H]2C1O` (some centres unmarked) [M8], the presence in serum [2] is listed as “present in an unspecified low amount” and the presence in serum ([3]; humans) is listed as “present in an unspecified low amount”.

For `O=C1C2C(C(=O)N1CC1CCCCC1CN1CCN(c3nsc4ccccc34)CC1)[C@@H]1CC[C@H]2C1O` (some centres unmarked) [M9], the identification in serum ([2]; rats and dogs) is listed as “identified in rats and dogs”.

For `O=C1C2C(C(=O)N1CC1CCCCC1CN1CCN(c3n[s+]([O-])c4ccccc34)CC1)[C@H]1CC[C@@H]2C1` (some centres unmarked) [M10], the “detectability in human urine (Example 1)” value [1] was “not present at any significant amount”.

For `O=C(O[C@@H]1O[C@H](C(=O)O)[C@@H](O)[C@H](O)[C@H]1O)C1CCCCC1CN1C(=O)C2C(C1=O)[C@H]1CC[C@@H]2C1` (some centres unmarked) [M11 Gluc], the “Lurasidone Metabolite Distribution in Human Urine (qualitative identification)” value [1] was “✓*”.

For `O=C(O)C1CCCCC1CN1C(=O)C2C(C1=O)[C@H]1CC[C@@H]2C1` (some centres unmarked) [M11, 2-{(3,5-Dioxo-4-azatricyclo[5.2.1.0^2,6]dec-4-yl)methyl}cyclohexanecarboxylic acid], the “detectability in human urine (Example 1)” value ([1]; human) is given as “neither metabolite ID-20220 (M5) nor metabolite ID-20219 (M11) were found to be excreted through human urine in detectable amounts”, the “Lurasidone Metabolite Distribution in Human Urine (qualitative identification)” value [1] is given as “✓^*” and the “share of total radioactivity in plasma” value ([3]; plasma, post oral dosing) is given as 24%.

For `CSc1ccccc1C(=N)N1CCN(CC2CCCCC2CN2C(=O)C3C(C2=O)[C@H]2CC[C@@H]3C2)CC1` (some centres unmarked) [M21, S-Methyl Lurasidone], the “detectability in human urine (Example 1)” value [1] is listed as “present in detectable quantities in each test of each subject's urine sample” and the “detection as circulating metabolite in serum” value ([2]; any of the animal models, radiolabelled lurasidone) is listed as “did not detect”.

For `[H]/N=C(/c1ccccc1SC)N1CCN(CC2CCCCC2CN2C(=O)C3C(C2=O)[C@@H]2CC[C@H]3C2O)CC1` (some centres unmarked) [M22, S-Methyl Hydroxy Lurasidone], the “detectability in human urine (Example 1)” value [1] is listed as “present in detectable quantities in each test of each subject's urine sample”, the presence in serum [2] is listed as “present in an unspecified low amount” and the “detection in other animal models” value ([2]; rabbits or monkeys) is listed as “not detected in any amount”. The presence in serum ([3]; humans) was “present in an unspecified low amount” and the “share of total drug-related exposure” value ([3]; humans) was “less than 10%”.
